Results published in patent US9138438B2, “Method for protecting a retinal neuronal cell” (ASAHI GLASS COMPANY, LIMITED, priority 2005, dated 2015).

Tested on: rat fetal retinal neuronal cells
Experiment: Glutamate-induced retinal neuronal cell death, trypan blue survival rate
Type: cell-based
Details: test compound 0.1 nM to 100 nM; 24 hours pre-incubation, 1 mM glutamate 10 minutes, then 1 hour with test compound; survival rate by trypan blue
Method: In order to find a new pharmaceutical application of a prostaglandin F2α derivative, by using rat fetal retinal neuronal cells, an effect of a prostaglandin F2α derivative on protecting retinal neuronal cells against glutamate-induced retinal neuronal cell death was evaluated and examined.
Incidentally, as the prostaglandin F2α derivative which is a test compound, 16-phenoxy-15-deoxy-15,15-difluoro-17,18,19,20-tetranor-prostaglandin F2α was used.
A pregnant SD rat was subjected to laparotomy under systemic anesthesia, and the uterus was transferred to a dish containing Hanks's balanced salt solution (HBSS). A rat fetus was isolated from the uterus, and the eyeballs of the rat fetus were taken out. The retina was isolated from the eyeballs under a stereoscopic microscope and cut into pieces with a surgical knife. […] After the cell number was counted with a hemocytometer, an MEM medium containing 10% FBS was added thereto, whereby a cell suspension with a cell density of 0.8×10^6 cells/mL was obtained. […]
At day 10 of culture, the plastic discs in which cells were inoculated and cultured were transferred to the HS-containing MEM medium containing the test compound and incubated for 24 hours (37° C., 5% CO2). […] After the cells were washed with a physiological saline solution, stained cells and unstained cells were counted under an inverted microscope. […]

O=C(O)CCC/C=C\C[C@@H]1[C@@H](/C=C/C(F)(F)COc2ccccc2)[C@H](O)C[C@@H]1O [test compound, 16-phenoxy-15-deoxy-15,15-difluoro-17,18,19,20-tetranor-prostaglandin F2α]
glutamate-induced retinal neuronal cell death: inhibited in a concentration-dependent manner
